From ChEMBL document CHEMBL6078668, “Synthesis and biological evaluation of lappaconitine analogues as potential anti-neuroinflammatory agents by side chain modification and scaffold hopping strategy” (Bioorg Med Chem, 2025)
Active and inactive are the calls of the source. No cut-off for these calls is given here.

Columns and labels:
[1] = system: BV-2; assay: Anti-neuroinflammatory activity against LPS-stimulated C57BL/6 mouse BV-2 cells assessed as decrease in IL-6 mRNA expression level at 30 to 60 uM preincubated with compound for 4 hrs followed by LPS addition and measured after 24 hrs by RT-PCR analysis; format: functional, cell-based; conditions: dose 30-60 µM, time 28.0 hrs
[2] = system: BV-2; assay: Inhibition of IkappaB phosphorylation in LPS-stimulated C57BL/6 mouse BV-2 cells at 30 to 60 uM preincubated with compound for 4 hrs followed by LPS stimulation by Western blot analysis; format: cell-based; conditions: dose 30-60 µM
[3] = system: BV-2; assay: Anti-neuroinflammatory activity against LPS-stimulated C57BL/6 mouse BV-2 cells assessed as decrease in IL-1beta expression level preincubated with compound for 4 hrs followed by LPS addition and measured after 24 hrs by ELISA; format: functional, cell-based; conditions: dose 30-60 µM, time 28.0 hrs
[4] = Acute toxicity in Kunming mouse assessed as animal death at 325 to 928 mg/kg, po measured after 14 days; format: organism-based; conditions: in vivo, 336 h, dose 325-928 mg/kg, time 14 day
[5] = system: BV-2; assay: Cytotoxicity against C57BL/6 mouse BV-2 cells assessed as effect on cell viability at 30 to 60 uM incubated for 24 hrs by MTT assay; format: toxicity, cell-based; conditions: bv-2, 24 h, dose 30-60 µM
[6] = system: BV-2; assay: Anti-neuroinflammatory activity against LPS-stimulated C57BL/6 mouse BV-2 cells assessed as decrease in IL-1beta mRNA expression level at 30 to 60 uM preincubated with compound for 4 hrs followed by LPS addition and measured after 24 hrs by RT-PCR analysis; format: functional, cell-based; conditions: dose 30-60 µM, time 28.0 hrs
[7] = Acute toxicity in Kunming mouse assessed as histological abnormalities in spleen at 250 mg/kg, po measured after 14 days by H and E staining based analysis; format: organism-based; conditions: in vivo, 336 h, time 14 day
[8] = Acute toxicity in po dosed Kunming mouse assessed as lethal dose measured after 14 days; format: organism-based; conditions: in vivo, time 14 day
[9] = system: BV-2; assay: Anti-neuroinflammatory activity against LPS-stimulated C57BL/6 mouse BV-2 cells assessed as decrease in IL-6 expression level preincubated with compound for 4 hrs followed by LPS addition and measured after 24 hrs by ELISA; format: functional, cell-based; conditions: dose 30-60 µM, time 28.0 hrs
[10] = system: BV-2; assay: Anti-neuroinflammatory activity against LPS-stimulated C57BL/6 mouse BV-2 cells assessed as downregulation of iNOS protein expression level by Western blot analysis; format: functional, cell-based; conditions: dose 30-60 µM
[11] = system: BV-2; assay: Anti-neuroinflammatory activity against LPS-stimulated C57BL/6 mouse BV-2 cells assessed as inhibition of NO release at 30 to 60 uM preincubated with compound for 4 hrs followed by LPS addition and measured after 24 hrs by Griess reagent based assay; format: functional, cell-based; conditions: dose 30-60 µM, time 28.0 hrs
[12] = Acute toxicity in Kunming mouse assessed as histological abnormalities in kidney at 250 mg/kg, po measured after 14 days by H and E staining based analysis; format: organism-based; conditions: in vivo, 336 h, time 14 day
[13] = system: BV-2; assay: Anti-neuroinflammatory activity against LPS-stimulated C57BL/6 mouse BV-2 cells assessed as downregulation of COX-2 protein expression level by Western blot analysis; format: functional, cell-based; conditions: dose 30-60 µM
[14] = system: BV-2; assay: Anti-neuroinflammatory activity against LPS-stimulated C57BL/6 mouse BV-2 cells assessed as downregulation of iNOS mRNA expression level at 30 to 60 uM preincubated with compound for 4 hrs followed by LPS addition and measured after 24 hrs by RT-PCR analysis; format: functional, cell-based; conditions: dose 30-60 µM, time 28.0 hrs
[15] = system: BV-2; assay: Anti-neuroinflammatory activity against LPS-stimulated C57BL/6 mouse BV-2 cells assessed as decrease in TNF-alpha expression level preincubated with compound for 4 hrs followed by LPS addition and measured after 24 hrs by ELISA; format: functional, cell-based; conditions: dose 30-60 µM, time 28.0 hrs
[16] = system: BV-2; assay: Downregulation of MyD88 protein expression in C57BL/6 mouse BV-2 cells at 30 to 60 uM preincubated with compound for 4 hrs followed by LPS stimulation by Western blot analysis; format: functional, cell-based; conditions: dose 30-60 µM
[17] = Acute toxicity in Kunming mouse assessed as histological abnormalities in liver at 250 mg/kg, po measured after 14 days by H and E staining based analysis; format: organism-based; conditions: in vivo, 336 h, time 14 day
[18] = Acute toxicity in Kunming mouse assessed as animal death at 250 mg/kg, po measured after 14 days; format: organism-based; conditions: in vivo, 336 h, time 14 day
[19] = system: BV-2; assay: Anti-neuroinflammatory activity against LPS-stimulated C57BL/6 mouse BV-2 cells assessed as downregulation of COX-2 mRNA expression level at 30 to 60 uM preincubated with compound for 4 hrs followed by LPS addition and measured after 24 hrs by RT-PCR analysis; format: functional, cell-based; conditions: dose 30-60 µM, time 28.0 hrs
[20] = system: BV-2; assay: Anti-neuroinflammatory activity against LPS-stimulated C57BL/6 mouse BV-2 cells assessed as inhibition of NO release at 30 uM preincubated with compound for 4 hrs followed by LPS addition and measured after 24 hrs by Griess reagent based assay relative to control; format: functional; conditions: C57BL/6, BV-2, time 28 hrs
[21] = system: BV-2; assay: Inhibition of NFkappaB p65 nuclear translocation in LPS-stimulated C57BL/6 mouse BV-2 cells at 30 to 60 uM preincubated with compound for 4 hrs followed by LPS stimulation by Western blot analysis; format: cell-based; conditions: dose 30-60 µM
[22] = Cytotoxicity against C57BL/6 mouse BV-2 cells assessed as survival rate at 30 uM incubated for 24 hrs by MTT assay relative to control; format: toxicity, cell-based; conditions: read-out: Survival
[23] = system: BV-2; assay: Anti-neuroinflammatory activity against LPS-stimulated C57BL/6 mouse BV-2 cells assessed as inhibition of NO release preincubated with compound for 4 hrs followed by LPS addition and measured after 24 hrs by Griess reagent based assay; format: functional, cell-based; conditions: C57BL/6, BV-2
[24] = system: BV-2; assay: Downregulation of TLR4 protein expression in C57BL/6 mouse BV-2 cells at 30 to 60 uM preincubated with compound for 4 hrs followed by LPS stimulation by Western blot analysis; format: functional, cell-based; conditions: dose 30-60 µM
[25] = Acute toxicity in Kunming mouse assessed as histological abnormalities in lung at 250 mg/kg, po measured after 14 days by H and E staining based analysis; format: organism-based; conditions: in vivo, 336 h, time 14 day
[26] = Acute toxicity in Kunming mouse assessed as histological abnormalities in heart at 250 mg/kg, po measured after 14 days by H and E staining based analysis; format: organism-based; conditions: in vivo, 336 h, time 14 day
[27] = system: BV-2; assay: Anti-neuroinflammatory activity against LPS-stimulated C57BL/6 mouse BV-2 cells assessed as decrease in TNF-alpha mRNA expression level at 30 to 60 uM preincubated with compound for 4 hrs followed by LPS addition and measured after 24 hrs by RT-PCR analysis; format: functional, cell-based; conditions: dose 30-60 µM, time 28.0 hrs

CCN1C[C@]2(OC(=O)c3ccccc3NC(=O)S(=O)(=O)c3cccc(F)c3)CC[C@H](OC)[C@]34C1[C@@H](C[C@H]23)[C@@]1(O)C[C@H](OC)[C@H]2C[C@@H]4[C@]1(O)[C@H]2OC
Activity [1]: Active
inhibition [2]: Active
Activity [3]: Dose-dependent-effect
Activity [4]: Toxic
Activity [5]: Non-toxic
Activity [6]: Active
Activity [7]: Non-toxic
LD50 at 336 h [8]: 508 mg/kg
Activity [9]: Dose-dependent-effect
Activity [10]: Dose-dependent-effect
Activity [11]: Active
Activity [12]: Non-toxic
Activity [13]: Dose-dependent-effect
Activity [14]: Active
Activity [15]: Dose-dependent-effect
Activity [16]: Active
Activity [17]: Non-toxic
Activity [18]: Non-toxic
Activity [19]: Active
inhibition at 30 µM [20]: 85.8%
inhibition [21]: Active
viability at 24 h, 30 µM [22]: 107%
IC50 [23]: 9.98 µM
Activity [24]: Active
Activity [25]: Non-toxic
Activity [26]: Non-toxic
Activity [27]: Active
